Experimental data taken from PubChem BioAssay AID2060909 (Molecular Pharmacology Branch, DTP, NCI, 2025).

Test system: 362531-283-R-J2-PDC complex spheroid viability
Assay: Anticancer human tumor 362531-283-R-J2-PDC patient-derived colon adenocarcinoma cell line growth inhibition [RAS]
Details: for IC50: curve of first compound; for viability, T/C: stronger effect = lower value
In short: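 Multi-cell-type spheroids: tumor cells plus HUVEC endothelial cells and mesenchymal stem cells. RAS-pathway inhibitors were combined with targeted agents, each dosed in half-log steps down from clinical Cmax, or from 10 microM when Cmax was unknown.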
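Note: spheroids exposed to the agents for 7 days before readout.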
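Throughout, for viability, T/C: luminescence viability as percent of DMSO vehicle control wells.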

Structure (SMILES): CCN1CCN(Cc2ccc(Nc3ncc(F)c(-c4cc(F)c5nc(C)n(C(C)C)c5c4)n3)nc2)CC1 + C#Cc1c(F)ccc2cc(O)cc(-c3ncc4c(N5CC6CCC(C5)N6)nc(OCC56CCCN5CC(F)C6)nc4c3F)c12
- IC50 (second compound 0.0316 µM): 504 nM
- IC50 (second compound 0.1 µM): 356 nM
- IC50 (second compound 0.316 µM): 187 nM
- IC50 (second compound 1 µM): 104 nM
- IC50 (second compound 3.16 µM): 24.1 nM
- IC50 (second compound 10 µM): < 3.16 nM
- viability, T/C (second compound 0.0316 µM, first compound 0.00316 µM): 89.4%
- viability, T/C (second compound 0.0316 µM, first compound 0.01 µM): 98.7%
- viability, T/C (second compound 0.0316 µM, first compound 0.0316 µM): 98.8%
- viability, T/C (second compound 0.0316 µM, first compound 0.1 µM): 70.3%
- viability, T/C (second compound 0.0316 µM, first compound 0.316 µM): 62.4%
- viability, T/C (second compound 0.0316 µM, first compound 1 µM): 36.9%
- viability, T/C (second compound 0.1 µM, first compound 0.00316 µM): 93.7%
- viability, T/C (second compound 0.1 µM, first compound 0.01 µM): 93.6%
- viability, T/C (second compound 0.1 µM, first compound 0.0316 µM): 81.4%
- viability, T/C (second compound 0.1 µM, first compound 0.1 µM): 63%
- viability, T/C (second compound 0.1 µM, first compound 0.316 µM): 57.4%
- viability, T/C (second compound 0.1 µM, first compound 1 µM): 28.8%
- viability, T/C (second compound 0.316 µM, first compound 0.00316 µM): 93.8%
- viability, T/C (second compound 0.316 µM, first compound 0.01 µM): 89.2%
- viability, T/C (second compound 0.316 µM, first compound 0.0316 µM): 85.4%
- viability, T/C (second compound 0.316 µM, first compound 0.1 µM): 58.7%
- viability, T/C (second compound 0.316 µM, first compound 0.316 µM): 42%
- viability, T/C (second compound 0.316 µM, first compound 1 µM): 21.9%
- viability, T/C (second compound 1 µM, first compound 0.00316 µM): 86.2%
- viability, T/C (second compound 1 µM, first compound 0.01 µM): 88%
- viability, T/C (second compound 1 µM, first compound 0.0316 µM): 74.1%
- viability, T/C (second compound 1 µM, first compound 0.1 µM): 50.5%
- viability, T/C (second compound 1 µM, first compound 0.316 µM): 29.8%
- viability, T/C (second compound 1 µM, first compound 1 µM): 20%
- viability, T/C (second compound 3.16 µM, first compound 0.00316 µM): 77.6%
- viability, T/C (second compound 3.16 µM, first compound 0.01 µM): 60.2%
- viability, T/C (second compound 3.16 µM, first compound 0.0316 µM): 48.5%
- viability, T/C (second compound 3.16 µM, first compound 0.1 µM): 32.1%
- viability, T/C (second compound 3.16 µM, first compound 0.316 µM): 22.4%
- viability, T/C (second compound 3.16 µM, first compound 1 µM): 17%
- viability, T/C (second compound 10 µM, first compound 0.00316 µM): 45.2%
- viability, T/C (second compound 10 µM, first compound 0.01 µM): 42.5%
- viability, T/C (second compound 10 µM, first compound 0.0316 µM): 30.9%
- viability, T/C (second compound 10 µM, first compound 0.1 µM): 23.6%
- viability, T/C (second compound 10 µM, first compound 0.316 µM): 16.7%
- viability, T/C (second compound 10 µM, first compound 1 µM): 12.2%
